This series has as its system rodent carcinogenicity bioassays, tumor incidence. Briefly: CCRIS carcinogenicity studies. In short, it runs like this:
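NCI-built, expert-reviewed records of carcinogenicity and related test outcomes (mutagenicity, tumor promotion/inhibition) compiled from published and report sources, historical span 1985-2011, not updated.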

Active and inactive are the calls of the source. The rule behind the calls is not given here.

For the molecule `O=[N+]([O-])c1ccc2c(c1)-c1ccc([N+](=O)[O-])c3cccc-2c13`, the carcinogen call reads like this: (Species: RAT, Strain/Sex: F344/DUCRJ/MALE, Route: PULMONARY IMPLANT, Dose: 0, 0.05, 0.1, 0.2 MG AS A SUSPENSION IN EQUAL VOL OF BEESWAX AND TRICAPRYLIN IMPLANTED IN LEFT LUNG (STUDY DURATION: 70, Dose: 0, 0.05, 0.1, 0.2 MG AS A SUSPENSION IN EQUAL VOL OF BEESWAX AND TRICAPRYLIN IMPLANTED IN LEFT LUNG (STUDY DURATION: 70, Tumor Site: Type of Lesion: LUNG: TUMOR) “active; positive”; (Species: RAT, Strain/Sex: F344/MALE, Route: LUNG IMPLANT, Dose: 0, 50, 100, 200 UG IN BEESWAX/TRICAPRYLIN INTO LOWER LEFT LUNG ONCE (STUDY DURATION: 100 WK), Dose: 0, 50, 100, 200 UG IN BEESWAX/TRICAPRYLIN INTO LOWER LEFT LUNG ONCE (STUDY DURATION: 100 WK), Tumor Site: Type of Lesion: LUNG: SQUAMOUS CELL CARCINOMA, ADENOSQUAMOUS CARCINOMA, TUMOR) “active; positive”; (Species: RAT, Strain/Sex: F344/MALE, Route: PULMONARY IMPLANT, Dose: 0, 50, 100, 200 UG IN 50 µL BEESWAX/TRICAPRYLIN IMPLANTED FOR UP TO 100 WK (STUDY DURATION: 100 WK), Dose: 0, 50, 100, 200 UG IN 50 µL BEESWAX/TRICAPRYLIN IMPLANTED FOR UP TO 100 WK (STUDY DURATION: 100 WK), Tumor Site: Type of Lesion: LUNG: TUMOR) “active; positive”.

For the molecule `CC(=O)OC/C=C(C)/C=C/C=C(C)/C=C/C1=C(C)CCCC1(C)C`, the carcinogen call (Species: RAT, Strain/Sex: F344/FEMALE, Route: ORAL, Dose: 0, 0.125, 0.25% IN DRINKING WATER (TOTAL DOSE: 0; 50; 95 G/KG) FOR 104 WK (STUDY DURATION: 108 WK), Dose: 0, 0.125, 0.25% IN DRINKING WATER (TOTAL DOSE: 0; 50; 95 G/KG) FOR 104 WK (STUDY DURATION: 108 WK), Tumor Site: Type of Lesion: ADRENAL GLAND: MALIGNANT OR BENIGN PHEOCHROMOCYTOMA, BENIGN PHEOCHROMOCYTOMA, BILATERAL LESIONS, CLITORAL GLAND: ADENOMA) is “active; positive” and the carcinogen call (Species: RAT, Strain/Sex: F344/MALE, Route: ORAL, Dose: 0, 0.125, 0.25% IN DRINKING WATER (TOTAL DOSE: 0; 50; 95 G/KG) FOR 104 WK (STUDY DURATION: 108 WK), Dose: 0, 0.125, 0.25% IN DRINKING WATER (TOTAL DOSE: 0; 50; 95 G/KG) FOR 104 WK (STUDY DURATION: 108 WK), Tumor Site: Type of Lesion: ADRENAL GLAND: MALIGNANT PHEOCHROMOCYTOMA, BENIGN PHEOCHROMOCYTOMA, BILATERAL LESIONS) was “active; positive”.

On to `CC(C)COC(=O)c1ccc(O)cc1`, for which the carcinogen call is, setting by setting: (Species: MOUSE, Strain/Sex: ICR/FEMALE, Route: ORAL, Dose: 0, 0.15, 0.3, 0.6% IN DIET FOR 102 WK (STUDY DURATION: 106 WK), Dose: 0, 0.15, 0.3, 0.6% IN DIET FOR 102 WK (STUDY DURATION: 106 WK)) “inactive; negative”; (Species: MOUSE, Strain/Sex: ICR/MALE, Route: ORAL, Dose: 0, 0.15, 0.3, 0.6% IN DIET FOR 102 WK (STUDY DURATION: 106 WK), Dose: 0, 0.15, 0.3, 0.6% IN DIET FOR 102 WK (STUDY DURATION: 106 WK)) “inactive; negative”.

On to `c1ccc2nc3ccc4ccccc4c3cc2c1`, for which the carcinogen call (Species: RAT, Strain/Sex: OSBORNE-MENDEL/FEMALE, Route: LUNG IMPLANT, Dose: 0, 0.2, 1.0, 5.0 MG IN BEESWAX/TRICAPRYLIN (STUDY DURATION: LIFETIME), Dose: 0, 0.2, 1.0, 5.0 MG IN BEESWAX/TRICAPRYLIN (STUDY DURATION: LIFETIME)) was “inactive; negative”.

On to `CN(C)c1ccc(C(=C2C=CC(=[N+](C)C)C=C2)c2ccccc2)cc1`, for which the carcinogen call is, setting by setting: (Species: MOUSE, Strain/Sex: B6C3F1/FEMALE, Route: ORAL (DIET), Dose: 0, 100, 225, 450 PPM IN DIET FOR 2 YRS, Dose: 0, 100, 225, 450 PPM IN DIET FOR 2 YRS) “inactive; negative”; (Species: RAT, Strain/Sex: F344/N/FEMALE, Route: ORAL (DIET), Dose: 0, 100, 300, 600 PPM IN DIET FOR 2 YRS, Dose: 0, 100, 300, 600 PPM IN DIET FOR 2 YRS, Tumor Site: Type of Lesion: THYROID: FOLLICULAR CELL ADENOMA OR CARCINOMA, LIVER: HEPATOCELLULAR ADENOMA, MAMMARY GLAND: CARCINOMA, Tumor Site: Type of Lesion: THYROID: FOLLICULAR CELL ADENOMA OR CARCINOMA, LIVER: HEPATOCELLULAR ADENOMA, MAMMARY GLAND: CARCINOMA) “equivocal; none of the tumor incidences reached statistical significance; in som”.

As to `C[C@]12CC[C@@H]3C4=C(CC[C@H]3[C@@H]1CCC2=O)C(=O)C(=O)C=C4`, the carcinogen call (Species: RAT, Strain/Sex: STRAIN-CD/FEMALE, Route: INJECTION, Dose: 0, 30 UMOL (TOTAL DOSE) 1/6 INJECTED UNDER EACH OF 3 THORACIC AND 3 INGUINAL NIPPLES ONCE (STUDY DURATION: 44 WK)) is “inactive; negative”.

On to `CC(=O)N(C)C`, for which the carcinogen call is, setting by setting: (Species: MOUSE, Strain/Sex: CRL:CD-1 (ICR)BR/FEMALE, Route: INHALATION, Dose: 0, 25, 100, 350 PPM 6 HR/D 5 D/WK FOR 18 MO (STUDY DURATION: 18 MO), Dose: 0, 25, 100, 350 PPM 6 HR/D 5 D/WK FOR 18 MO (STUDY DURATION: 18 MO)) “inactive; negative”; (Species: MOUSE, Strain/Sex: CRL:CD-1 (ICR)BR/MALE, Route: INHALATION, Dose: 0, 25, 100, 350 PPM 6 HR/D 5 D/WK FOR 18 MO (STUDY DURATION: 18 MO), Dose: 0, 25, 100, 350 PPM 6 HR/D 5 D/WK FOR 18 MO (STUDY DURATION: 18 MO)) “inactive; negative”; (Species: RAT, Strain/Sex: CRL:CD BR/FEMALE, Route: INHALATION, Dose: 0, 25, 100, 350 PPM 6 HR/D 5 D/WK FOR 2 YR (STUDY DURATION: 2 YR), Dose: 0, 25, 100, 350 PPM 6 HR/D 5 D/WK FOR 2 YR (STUDY DURATION: 2 YR)) “inactive; negative”; (Species: RAT, Strain/Sex: CRL:CD BR/MALE, Route: INHALATION, Dose: 0, 25, 100, 350 PPM 6 HR/D 5 D/WK FOR 2 YR (STUDY DURATION: 2 YR), Dose: 0, 25, 100, 350 PPM 6 HR/D 5 D/WK FOR 2 YR (STUDY DURATION: 2 YR)) “inactive; negative”.

In the case of `CN(C)C(=S)SSC(=S)N(C)C`, the carcinogen call by setting is: (Species: DOG, Strain/Sex: BEAGLE/FEMALE, Route: ORAL, Dose: 0, 0.4, 4, 40 MG/KG/D ADMINISTERED IN GELATIN CAPSULES 7 D/WK FOR 104 WK (STUDY DURATION: 104 WK), Dose: 0, 0.4, 4, 40 MG/KG/D ADMINISTERED IN GELATIN CAPSULES 7 D/WK FOR 104 WK (STUDY DURATION: 104 WK)) “inactive; negative”; (Species: DOG, Strain/Sex: BEAGLE/MALE, Route: ORAL, Dose: 0, 0.4, 4, 40 MG/KG/D ADMINISTERED IN GELATIN CAPSULES 7 D/WK FOR 104 WK (STUDY DURATION: 104 WK), Dose: 0, 0.4, 4, 40 MG/KG/D ADMINISTERED IN GELATIN CAPSULES 7 D/WK FOR 104 WK (STUDY DURATION: 104 WK)) “inactive; negative”; (Species: MOUSE, Strain/Sex: SWISS/FEMALE, Route: DERMAL, Dose: 0, 100 MG/KG BW IN 100 µL DMSO 3/WK FOR 52 WK (STUDY DURATION: 52 WK)) “inactive; negative”; (Species: MOUSE, Strain/Sex: SWISS/MALE, Route: 0, 100 MG/KG BW IN 100 µL DMSO 3/WK FOR 52 WK (STUDY DURATION: 52 WK)) “inactive; negative”; (Species: RAT, Strain/Sex: F344/FEMALE, Route: ORAL, Dose: 0, 0.05, 0.1% IN DIET FOR 104 WK (STUDY DURATION: 112 WK), Dose: 0, 0.05, 0.1% IN DIET FOR 104 WK (STUDY DURATION: 112 WK)) “inactive; negative”; (Species: RAT, Strain/Sex: F344/MALE, Route: ORAL, Dose: 0, 0.05, 0.1% IN DIET FOR 104 WK (STUDY DURATION: 112 WK), Dose: 0, 0.05, 0.1% IN DIET FOR 104 WK (STUDY DURATION: 112 WK)) “inactive; negative”. The carcinogen call is “inactive; negative” (Species: RAT, Strain/Sex: WISTAR/FEMALE, Route: ORAL, Dose: 0, 3, 30, 300 PPM IN DIET FOR 104 WK (STUDY DURATION: 104 WK), Dose: 0, 3, 30, 300 PPM IN DIET FOR 104 WK (STUDY DURATION: 104 WK)) and “inactive; negative” (Species: RAT, Strain/Sex: WISTAR/MALE, Route: ORAL, Dose: 0, 3, 30, 300 PPM IN DIET FOR 104 WK (STUDY DURATION: 104 WK), Dose: 0, 3, 30, 300 PPM IN DIET FOR 104 WK (STUDY DURATION: 104 WK)).
